Results from PubChem BioAssay (NCI).
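Exposure lasted 48 hours, with cells grown in 96-well plates and compounds tested at five concentrations. The concentration for full growth arrest is given as TGI.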

Tested on: HCT-15 colon
Experiment: NCI anticancer screen, dose series, 48 h

Compound	TGI
CCN(CC)C(=O)c1cc(OC(C)C)ccc1-c1c(C)cc(OC(C)C)c(OC)c1OC	> 100 µM
Cc1cccc(NC(=O)C(=O)Cc2nc3ccccc3[nH]c2=O)c1C	> 100 µM

Tested on: XF 498 CNS
Experiment: NCI anticancer screen, dose series, 48 h

Compound	TGI
CC1=C2C(=O)O[C@@H](c3ccoc3)[C@]2(C)CCC1	> 100 µM
CC1=C(C)CC2(CCCCC2=O)S(=O)C1 (stereo not drawn)	> 100 µM
Cc1noc(C)c1CCCOC1COc2ccccc2OCCOCCOc2ccccc2OC1	> 100 µM
CCN(CC)C(=O)c1cc(OC(C)C)ccc1-c1c(C)cc(OC(C)C)c(OC)c1OC	73.9 µM
Cc1cccc(NC(=O)C(=O)Cc2nc3ccccc3[nH]c2=O)c1C	> 100 µM
C=CCCCCCCCCC(=O)NS(=O)(=O)c1ccccc1	> 100 µM

Tested on: SF-268 CNS
Experiment: NCI anticancer screen, dose series, 48 h

Compound	TGI
NC1=NN(c2ccccc2)C(=O)C1C(=O)CCC(=O)Nc1cccc(C(F)(F)F)c1 (stereo not drawn)	> 100 µM
CC1=C2C(=O)O[C@@H](c3ccoc3)[C@]2(C)CCC1	> 100 µM
CC1=C(C)CC2(CCCCC2=O)S(=O)C1 (stereo not drawn)	> 100 µM
COC(=O)C1=NC(=S)NC(c2ccccc2)C1c1nc2ccccc2s1 (stereo not drawn)	> 100 µM
Cc1noc(C)c1CCCOC1COc2ccccc2OCCOCCOc2ccccc2OC1	> 100 µM
CCN(CC)C(=O)c1cc(OC(C)C)ccc1-c1c(C)cc(OC(C)C)c(OC)c1OC	> 100 µM
Cc1cccc(NC(=O)C(=O)Cc2nc3ccccc3[nH]c2=O)c1C	> 100 µM
C=CCCCCCCCCC(=O)NS(=O)(=O)c1ccccc1	> 100 µM

Tested on: LOX IMVI melanoma
Experiment: NCI anticancer screen, dose series, 48 h

Compound	TGI
NC1=NN(c2ccccc2)C(=O)C1C(=O)CCC(=O)Nc1cccc(C(F)(F)F)c1 (stereo not drawn)	> 100 µM
CC1=C2C(=O)O[C@@H](c3ccoc3)[C@]2(C)CCC1	> 100 µM
CC1=C(C)CC2(CCCCC2=O)S(=O)C1 (stereo not drawn)	> 100 µM
Cc1noc(C)c1CCCOC1COc2ccccc2OCCOCCOc2ccccc2OC1	> 100 µM
CCN(CC)C(=O)c1cc(OC(C)C)ccc1-c1c(C)cc(OC(C)C)c(OC)c1OC	> 100 µM
Cc1cccc(NC(=O)C(=O)Cc2nc3ccccc3[nH]c2=O)c1C	> 100 µM
C=CCCCCCCCCC(=O)NS(=O)(=O)c1ccccc1	> 100 µM

Tested on: HOP-92 NSCLC
Experiment: NCI anticancer screen, dose series, 48 h

Compound	TGI
NC1=NN(c2ccccc2)C(=O)C1C(=O)CCC(=O)Nc1cccc(C(F)(F)F)c1 (stereo not drawn)	> 100 µM
CC1=C2C(=O)O[C@@H](c3ccoc3)[C@]2(C)CCC1	> 100 µM
CC1=C(C)CC2(CCCCC2=O)S(=O)C1 (stereo not drawn)	> 100 µM
COC(=O)C1=NC(=S)NC(c2ccccc2)C1c1nc2ccccc2s1 (stereo not drawn)	> 100 µM
Cc1cccc(NC(=O)C(=O)Cc2nc3ccccc3[nH]c2=O)c1C	> 100 µM
C=CCCCCCCCCC(=O)NS(=O)(=O)c1ccccc1	> 100 µM

Tested on: OVCAR-5 ovarian
Experiment: NCI anticancer screen, dose series, 48 h

Compound	TGI
NC1=NN(c2ccccc2)C(=O)C1C(=O)CCC(=O)Nc1cccc(C(F)(F)F)c1 (stereo not drawn)	> 100 µM
CC1=C2C(=O)O[C@@H](c3ccoc3)[C@]2(C)CCC1	> 100 µM
CC1=C(C)CC2(CCCCC2=O)S(=O)C1 (stereo not drawn)	> 100 µM
Cc1noc(C)c1CCCOC1COc2ccccc2OCCOCCOc2ccccc2OC1	> 100 µM
CCN(CC)C(=O)c1cc(OC(C)C)ccc1-c1c(C)cc(OC(C)C)c(OC)c1OC	> 100 µM
Cc1cccc(NC(=O)C(=O)Cc2nc3ccccc3[nH]c2=O)c1C	> 100 µM
C=CCCCCCCCCC(=O)NS(=O)(=O)c1ccccc1	> 100 µM

Tested on: COLO 205 colon
Experiment: NCI anticancer screen, dose series, 48 h

Compound	TGI
NC1=NN(c2ccccc2)C(=O)C1C(=O)CCC(=O)Nc1cccc(C(F)(F)F)c1 (stereo not drawn)	> 100 µM
CC1=C2C(=O)O[C@@H](c3ccoc3)[C@]2(C)CCC1	> 100 µM
CC1=C(C)CC2(CCCCC2=O)S(=O)C1 (stereo not drawn)	> 100 µM
COC(=O)C1=NC(=S)NC(c2ccccc2)C1c1nc2ccccc2s1 (stereo not drawn)	> 100 µM
Cc1noc(C)c1CCCOC1COc2ccccc2OCCOCCOc2ccccc2OC1	> 100 µM
CCN(CC)C(=O)c1cc(OC(C)C)ccc1-c1c(C)cc(OC(C)C)c(OC)c1OC	> 100 µM
Cc1cccc(NC(=O)C(=O)Cc2nc3ccccc3[nH]c2=O)c1C	> 100 µM
C=CCCCCCCCCC(=O)NS(=O)(=O)c1ccccc1	> 100 µM

Tested on: IGROV1 ovarian
Experiment: NCI anticancer screen, dose series, 48 h

Compound	TGI
NC1=NN(c2ccccc2)C(=O)C1C(=O)CCC(=O)Nc1cccc(C(F)(F)F)c1 (stereo not drawn)	> 100 µM
CC1=C2C(=O)O[C@@H](c3ccoc3)[C@]2(C)CCC1	> 100 µM
CC1=C(C)CC2(CCCCC2=O)S(=O)C1 (stereo not drawn)	> 100 µM
COC(=O)C1=NC(=S)NC(c2ccccc2)C1c1nc2ccccc2s1 (stereo not drawn)	> 100 µM
Cc1noc(C)c1CCCOC1COc2ccccc2OCCOCCOc2ccccc2OC1	> 100 µM
CCN(CC)C(=O)c1cc(OC(C)C)ccc1-c1c(C)cc(OC(C)C)c(OC)c1OC	> 100 µM
Cc1cccc(NC(=O)C(=O)Cc2nc3ccccc3[nH]c2=O)c1C	> 100 µM
C=CCCCCCCCCC(=O)NS(=O)(=O)c1ccccc1	> 100 µM

Tested on: RXF-631 renal
Experiment: NCI anticancer screen, dose series, 48 h

Compound	TGI
NC1=NN(c2ccccc2)C(=O)C1C(=O)CCC(=O)Nc1cccc(C(F)(F)F)c1 (stereo not drawn)	> 100 µM
